Measured values as given in patent publication US20070128217A1 (priority 2003, published 2007).

Key:
[1] = test system: antibodies in sera from SARS patients (sera 1a, 1b, 2, 6, 37, 62, London, SARS-yellow, SARS-green); format: binding, human; set-up: Binding of serum 6 to linear peptides of protein X1 of SARS-CoV Urbani / Binding of serum 37 to linear peptides of protein X1 of SARS-CoV Urbani / Binding of serum 6 to looped/cyclic peptide (PEPSCAN-ELISA) / Binding of serum 37 to looped/cyclic peptide (PEPSCAN-ELISA) / Binding of serum 37 to looped/cyclic peptides of protein X1 of SARS-CoV Urbani / Binding of serum 6 to linear peptides of protein X2 / Binding of serum 37 to linear peptides of protein X2 / Binding of serum 37 to looped/cyclic peptides of protein X2 of SARS-CoV Urbani / Binding of serum 6 to linear peptides of protein M of SARS-CoV Urbani / Binding of serum 37 to linear peptides of protein M of SARS-CoV Urbani / Binding of serum 6 to looped/cyclic peptides of protein M of SARS-CoV Urbani / Binding of serum 37 to looped/cyclic peptides of protein M of SARS-CoV Urbani / Binding of serum 6 to linear peptides of protein X3 of SARS-CoV Urbani / Binding of serum 37 to linear peptides of protein X3 of SARS-CoV Urbani / Binding of serum 37 to looped/cyclic peptides of protein X3 of SARS-CoV Urbani / Binding of serum 6 to linear peptides of protein X4 of SARS-CoV Urbani / Binding of serum 37 to linear peptides of protein X4 of SARS-CoV Urbani / Binding of serum 37 to looped/cyclic peptides of protein X4 of SARS-CoV Urbani / Binding of serum 6 to linear peptides of protein X5 of SARS-CoV Urbani / Binding of serum 37 to linear peptides of protein X5 of SARS-CoV Urbani / Binding of serum 37 to looped/cyclic peptides of protein X5 of SARS-CoV Urbani / Binding of serum 6 to linear peptides of protein N of SARS-CoV Urbani / Binding of serum 37 to linear peptides of protein N of SARS-CoV Urbani / Binding of serum 6 to linear peptide (PEPSCAN-ELISA) / Binding of serum 1a to looped/cyclic peptides of protein N of SARS-CoV Urbani / Binding of serum 1b to looped/cyclic peptides of protein N of SARS-CoV Urbani / Binding of serum 2 to looped/cyclic peptides of protein N of SARS-CoV Urbani / Binding of serum 6 to looped/cyclic peptides of protein N of SARS-CoV Urbani / Binding of serum 37 to looped/cyclic peptides of protein N of SARS-CoV Urbani / Binding of serum 62 to looped/cyclic peptides of protein N of SARS-CoV Urbani / Binding of serum London to looped/cyclic peptides of protein N of SARS-CoV Urbani / Binding of serum SARS-green to looped/cyclic peptides of protein N of SARS-CoV Urbani: unit not given here
[2] = test system: rabbit serum obtained by immunizing a rabbit with the SARS-CoV strain Frankfurt 1; format: binding; set-up: Binding of a rabbit serum to linear peptides / Binding of a rabbit serum to looped peptides / Rabbit serum linear peptides / Rabbit serum looped peptides / Binding of a rabbit serum to linear peptides of protein N of SARS-CoV Urbani (Rabbit serum linear peptides) / Binding of a rabbit serum to looped/cyclic peptides of protein N of SARS-CoV Urbani (Rabbit serum looped peptides): unit not given here
[3] = test system: control sera (pooled serum of ten healthy LUMC hospital workers; commercial negative donor pooled serum from the Dutch bloodbank); format: binding, human; set-up: Binding of Control serum LUMC to linear peptides / Binding of Control serum Blood-bank to linear peptides / Binding of Control serum LUMC to looped peptides / Binding of Control Serum Blood-Bank to Looped peptides / Binding of Control serum LUMC to linear peptides of the protein M of SARS-CoV Urbani / Binding of Control serum Blood-bank to linear peptides of the protein M of SARS-CoV Urbani / Binding of Control serum LUMC to looped peptides of the protein M of SARS-CoV Urbani / Binding of Control Serum Blood-Bank to Looped peptides of the protein M of SARS-CoV Urbani: unit not given here

| Sequence | Binding of serum 1a to linear peptides of protein X4 of SARS-CoV Urbani [1] | Binding of serum 1a to looped/cyclic peptides of protein X4 of SARS-CoV Urbani [1] | Binding of serum 1b to linear peptides of protein X4 of SARS-CoV Urbani [1] | Binding of serum 1b to looped/cyclic peptides of protein X4 of SARS-CoV Urbani [1] | Binding of serum 2 to linear peptides of protein X4 of SARS-CoV Urbani [1] | Binding of serum 2 to looped/cyclic peptides of protein X4 of SARS-CoV Urbani [1] | Binding of serum 6 to linear peptides of protein X4 of SARS-CoV Urbani [1] | Binding of serum 6 to looped/cyclic peptides of protein X4 of SARS-CoV Urbani [1] | Binding of serum 37 to linear peptides of protein X4 of SARS-CoV Urbani [1] | Binding of serum 37 to looped/cyclic peptides of protein X4 of SARS-CoV Urbani [1] | Binding of serum 62 to linear peptides of protein X4 of SARS-CoV Urbani [1] | Binding of serum 62 to looped/cyclic peptides of protein X4 of SARS-CoV Urbani [1] | Binding of serum London to linear peptides of protein X4 of SARS-CoV Urbani [1] | Binding of serum London to looped/cyclic peptides of protein X4 of SARS-CoV Urbani [1] | Binding of serum SARS-green to linear peptides of protein X4 of SARS-CoV Urbani [1] | Binding of serum SARS-green to looped/cyclic peptides of protein X4 of SARS-CoV Urbani [1] | Binding of serum SARS-yellow to linear peptides of protein X4 of SARS-CoV Urbani [1] | Binding of serum SARS-yellow to looped/cyclic peptides of protein X4 of SARS-CoV Urbani [1] | Rabbit serum linear peptides [2] | Rabbit serum looped peptides [2] | also measured |
| --- | --- | --- | --- | --- | --- | --- | --- | --- | --- | --- | --- | --- | --- | --- | --- | --- | --- | --- | --- | --- | --- |
| FLIVAALVFLILCFT | 0.6 | 0.7 | 0.5 | 0.4 | 0.4 | 0.7 | 0.5 | 0.4 | 0.7 | 0.7 | 0.7 | 0.6 | 0.6 | 0.3 | 0.5 | 0.5 | 0.7 | 0.5 | 0.4 | 0.3 | Binding of Control Serum Blood-Bank to Looped peptides [3]: 0.7; Binding of Control serum Blood-bank to linear peptides [3]: 0.4; Binding of Control serum LUMC to linear peptides [3]: 0.4; Binding of Control serum LUMC to looped peptides [3]: 0.6 |
| FLTLIVFTSCELYHY | 0.7 | 0.8 | 0.6 | 1.7 | 0.5 | 0.8 | 0.5 | 0.5 | 0.7 | 0.7 | 0.7 | 0.7 | 0.6 | 0.3 | 0.6 | 0.3 | 0.6 | 0.7 | 0.4 | 0.5 | Binding of Control Serum Blood-Bank to Looped peptides [3]: 0.6; Binding of Control serum Blood-bank to linear peptides [3]: 0.6; Binding of Control serum LUMC to linear peptides [3]: 0.7; Binding of Control serum LUMC to looped peptides [3]: 0.7 |
